According to US12599130B2, “Liquid agricultural adjuvant” (Oro Agri Inc., priority 2019, dated 2026):

Test system: not listed separately
Assay: Paraffin wax solubility test
Format: physicochemical
Settings: 2.0 g paraffin wax in 98 g solvent, 25° C., stirring at 350 rpm

SMILES | DISSOLUTION TIME
CCCCCCCCCCCC(=O)OCC(CC)CCCC (stereo not drawn) [2-ETHYLHEXYL LAURATE] | 930 min
CCCCCCCCCCCC(=O)OCCC(C)C [ISOAMYL LAURATE] | 620 min
CCCCCCCCCCCC(=O)OCC(C)C [ISOBUTYL LAURATE] | 340 min
CCCCCCCCCCCC(=O)OC(C)C [ISOPROPYL LAURATE] | 102 min
CCCCCCCCCCCC(=O)OC [METHYL LAURATE] | 300 min

Same assay, conditions: 2.0 g paraffin wax in 98 g solvent, 25° C., up to 24 hours stirring

SMILES | OBSERVATION
CCCCCCCCCC(=O)N(C)C | UNDISSOLVED
O=C1CCCCC1 [CYCLOHEXANONE] | UNDISSOLVED
C[S+](C)[O-] [DIMETHYL SULFOXIDE] | UNDISSOLVED
CC1COC(=O)O1 (stereo not drawn) [PROPYLENE CARBONATE] | UNDISSOLVED
OCC1CCCO1 (stereo not drawn) [TETRAHYDROFURFURAL ALCOHOL] | UNDISSOLVED

Test system: wheat
Assay: Field trial: wheat cover crop burndown with glyphosate plus adjuvant at full tillering
Format: in vivo
Settings: 14 DAT, adjuvant rate 10 g/L, glyphosate 420 g ae/ha
Procedure: Adjuvant x Adjuvant rate effect on wheat cover crop burndown with glyphosate at full tillering stage.
A bifactorial trial was conducted consisting of […] treatments, comprised of a combination of 10 adjuvants (factor A) and 2 adjuvants rates (factor B), plus three reference treatments (Table 6).
Prior to treatment application, two plots per block were chosen to record wheat height and tiller number per plant. In each plot, the height of the tallest and shortest plant was measured, and the tillers counted.
Herbicide application was done using a single-nozzle boom connected to a backpack CO2 pressurized system. Each plot measured 3 ft×20 ft. After 14 and 28 days of application, wheat desiccation was evaluated visually using a 0-100% scale, where 0 corresponds to absence of injury symptoms and 100% corresponds to plant death.

SMILES | Wheat desiccation (%)
N.N.O=S(=O)(O)O [Ammonium sulfate] | 80%

Same assay, conditions: 28 DAT, adjuvant rate 10 g/L, glyphosate 420 g ae/ha

SMILES | Wheat desiccation (%)
N.N.O=S(=O)(O)O [Ammonium sulfate] | 95%
